From ChEMBL document CHEMBL1201862, “PubChem BioAssay data set” (2004)
Calls of active or inactive are those of the source. Positions of bridges follow the written chain, without caps; N, C: chain ends. Non-standard residues stand in square brackets, D forms with d. Residues, ends and D or L forms follow the SMILES beside them. *: point of attachment. X1 = CCC(C)C(N)C1=NC(C(=O)*)CS1; dOrn = NCCC[C@@H](N)C(=O)O

Key:
[1] = cytotoxicity in HEK-293T NF-kB-Luc cells, dose response, cytotoxicity control for B/T-cell NF-kB inhibitor project, cell-based, uHTS hits (AID 489019); format: functional;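 also: IC50 reflects cytotoxicity as loss of cell viability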
[2] = test system: Jurkat; assay: antigen receptor-induced NF-kB inhibitors, dose response, Jurkat, luciferase reporter, luminescence, B- and T-cell (AID 489004); format: functional, cell-based; details: Homo sapiens;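 also: NF-kB luciferase reporter Jurkat cells stimulated with PMA plus ionomycin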
[3] = test system: HEK293; assay: cells; format: functional, cell-based; details: Homo sapiens
[4] = molecular target: Nuclear receptor subfamily 0 group B member 1 (Homo sapiens, UniProt P51843); assay: Luminescence-based cell-based high throughput dose response assay for inhibitors of the orphan nuclear receptor subfamily 0, group B, member 1 (DAX1; NR0B1). [Related pubchem assays (depositor defined):AID504766, AID504790]; format: functional
[5] = molecular target: T1, Microphthalmia-associated transcription factor (Homo sapiens, UniProt O75030); assay: TRPM1 promoter luciferase signal decrease, dose response, MITF inhibitor project, cell-based, SK-MEL-5, cherry-picked, set 3 (AID 493073); format: functional
T1 sequence (O75030 whole entry): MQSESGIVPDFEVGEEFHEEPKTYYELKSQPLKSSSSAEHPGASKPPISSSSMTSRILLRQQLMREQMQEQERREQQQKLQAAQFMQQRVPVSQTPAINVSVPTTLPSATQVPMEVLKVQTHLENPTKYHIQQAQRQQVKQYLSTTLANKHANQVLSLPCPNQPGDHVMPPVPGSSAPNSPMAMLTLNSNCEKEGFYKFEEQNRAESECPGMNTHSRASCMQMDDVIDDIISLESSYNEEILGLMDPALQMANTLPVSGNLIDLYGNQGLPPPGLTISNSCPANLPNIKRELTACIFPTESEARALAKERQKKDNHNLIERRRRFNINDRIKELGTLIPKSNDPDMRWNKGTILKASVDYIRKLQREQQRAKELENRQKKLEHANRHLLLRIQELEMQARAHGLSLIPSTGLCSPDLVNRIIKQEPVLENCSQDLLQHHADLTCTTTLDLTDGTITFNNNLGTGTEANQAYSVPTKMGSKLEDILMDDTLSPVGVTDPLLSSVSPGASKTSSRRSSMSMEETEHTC

[6] = molecular target: T2, Replicative DNA helicase DnaB (Mycobacterium tuberculosis, UniProt P9WMR3); assay: DnaB intein splicing inhibitors, dose response, biochemical, cell-free fluorescence (AID 449749); format: functional
T2 sequence (P9WMR3 whole entry): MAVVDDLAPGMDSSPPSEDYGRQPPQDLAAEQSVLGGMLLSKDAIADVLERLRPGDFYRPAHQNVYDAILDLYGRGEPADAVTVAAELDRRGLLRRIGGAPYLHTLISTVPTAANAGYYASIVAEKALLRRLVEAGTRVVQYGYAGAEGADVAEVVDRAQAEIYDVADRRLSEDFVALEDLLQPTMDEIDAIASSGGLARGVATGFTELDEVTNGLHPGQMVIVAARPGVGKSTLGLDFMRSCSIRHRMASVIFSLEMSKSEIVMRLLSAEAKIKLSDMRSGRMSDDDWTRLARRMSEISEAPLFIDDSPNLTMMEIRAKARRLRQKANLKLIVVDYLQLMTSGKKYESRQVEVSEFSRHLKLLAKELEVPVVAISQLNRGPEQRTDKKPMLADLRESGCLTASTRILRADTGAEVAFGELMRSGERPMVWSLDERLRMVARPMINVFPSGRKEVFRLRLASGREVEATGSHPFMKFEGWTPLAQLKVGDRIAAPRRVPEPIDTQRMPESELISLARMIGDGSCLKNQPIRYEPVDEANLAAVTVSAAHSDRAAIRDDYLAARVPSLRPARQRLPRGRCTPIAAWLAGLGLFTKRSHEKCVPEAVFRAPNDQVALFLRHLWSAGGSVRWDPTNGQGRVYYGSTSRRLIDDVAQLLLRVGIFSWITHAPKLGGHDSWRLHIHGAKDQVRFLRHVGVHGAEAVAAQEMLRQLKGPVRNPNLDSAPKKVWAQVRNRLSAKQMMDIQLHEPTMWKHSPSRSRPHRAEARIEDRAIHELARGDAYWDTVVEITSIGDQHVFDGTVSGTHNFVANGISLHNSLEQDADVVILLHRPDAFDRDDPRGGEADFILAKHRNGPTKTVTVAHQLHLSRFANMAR

[7] = test system: INS1; assay: beta cell apoptosis inhibitors, cytokine rescue, dose response, luminescence, retest (AID 449756); format: functional, cell-based; details: Rattus norvegicus;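 also: cell death triggered by IL-1 beta plus TNF-alpha plus IFN-gamma mixture; protective hits raise ATP signal compared with cytokine alone wells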
[8] = molecular target: T3, Apoptotic protease-activating factor 1 (Homo sapiens, UniProt O14727); format: functional
T3 sequence (O14727 whole entry): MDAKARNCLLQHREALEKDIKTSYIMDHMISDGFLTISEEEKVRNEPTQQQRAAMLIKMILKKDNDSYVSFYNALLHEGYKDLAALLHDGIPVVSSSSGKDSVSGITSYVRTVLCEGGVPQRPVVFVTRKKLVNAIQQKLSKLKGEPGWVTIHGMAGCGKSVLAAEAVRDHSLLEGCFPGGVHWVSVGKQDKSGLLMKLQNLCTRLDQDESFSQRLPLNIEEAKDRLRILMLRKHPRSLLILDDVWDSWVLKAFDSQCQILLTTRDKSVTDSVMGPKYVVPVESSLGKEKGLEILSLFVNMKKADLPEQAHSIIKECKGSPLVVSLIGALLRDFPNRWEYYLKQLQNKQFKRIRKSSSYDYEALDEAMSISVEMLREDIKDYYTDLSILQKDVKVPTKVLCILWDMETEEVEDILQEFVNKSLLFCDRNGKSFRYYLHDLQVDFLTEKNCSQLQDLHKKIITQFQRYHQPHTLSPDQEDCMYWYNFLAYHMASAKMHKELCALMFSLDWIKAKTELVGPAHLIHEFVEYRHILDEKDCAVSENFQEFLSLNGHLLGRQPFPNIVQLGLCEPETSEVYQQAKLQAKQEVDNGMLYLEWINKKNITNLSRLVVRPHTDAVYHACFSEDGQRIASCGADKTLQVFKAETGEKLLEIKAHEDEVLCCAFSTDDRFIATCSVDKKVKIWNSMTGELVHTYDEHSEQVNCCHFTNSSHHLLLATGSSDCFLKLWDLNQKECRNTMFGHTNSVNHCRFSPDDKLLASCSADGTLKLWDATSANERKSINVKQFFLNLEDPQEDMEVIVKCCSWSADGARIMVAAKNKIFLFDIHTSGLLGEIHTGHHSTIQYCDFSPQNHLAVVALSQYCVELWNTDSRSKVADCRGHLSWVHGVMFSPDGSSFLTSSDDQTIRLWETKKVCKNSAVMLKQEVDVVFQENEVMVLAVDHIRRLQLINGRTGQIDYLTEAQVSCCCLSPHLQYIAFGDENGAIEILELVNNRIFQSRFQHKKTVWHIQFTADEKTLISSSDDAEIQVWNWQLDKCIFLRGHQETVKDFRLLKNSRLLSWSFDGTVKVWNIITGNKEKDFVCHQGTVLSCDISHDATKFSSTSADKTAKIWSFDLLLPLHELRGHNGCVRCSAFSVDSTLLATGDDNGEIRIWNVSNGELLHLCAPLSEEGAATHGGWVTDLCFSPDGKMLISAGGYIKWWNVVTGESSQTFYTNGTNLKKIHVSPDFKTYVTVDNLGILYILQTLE

[9] = test system: A-375; assay: MITF: Counter assay: A375 proliferation Measured in Cell-Based System Using Plate Reader - 2084-03_Inhibitor_Dose_DryPowder_Activity. [Related pubchem assays (depositor defined):AID488944]; format: functional; details: Homo sapiens
[10] = molecular target: T4, Protein RecA (Mycobacterium tuberculosis, UniProt P9WHJ3); assay: Fluorescence Cell-Free Homogeneous Dose Retest to Identify Inhibitors of RecA-Intein Splicing Activity. [Related pubchem assays (depositor defined):AID2097, AID2223, AID489010, AID492950]; format: functional
T4 sequence (P9WHJ3 whole entry): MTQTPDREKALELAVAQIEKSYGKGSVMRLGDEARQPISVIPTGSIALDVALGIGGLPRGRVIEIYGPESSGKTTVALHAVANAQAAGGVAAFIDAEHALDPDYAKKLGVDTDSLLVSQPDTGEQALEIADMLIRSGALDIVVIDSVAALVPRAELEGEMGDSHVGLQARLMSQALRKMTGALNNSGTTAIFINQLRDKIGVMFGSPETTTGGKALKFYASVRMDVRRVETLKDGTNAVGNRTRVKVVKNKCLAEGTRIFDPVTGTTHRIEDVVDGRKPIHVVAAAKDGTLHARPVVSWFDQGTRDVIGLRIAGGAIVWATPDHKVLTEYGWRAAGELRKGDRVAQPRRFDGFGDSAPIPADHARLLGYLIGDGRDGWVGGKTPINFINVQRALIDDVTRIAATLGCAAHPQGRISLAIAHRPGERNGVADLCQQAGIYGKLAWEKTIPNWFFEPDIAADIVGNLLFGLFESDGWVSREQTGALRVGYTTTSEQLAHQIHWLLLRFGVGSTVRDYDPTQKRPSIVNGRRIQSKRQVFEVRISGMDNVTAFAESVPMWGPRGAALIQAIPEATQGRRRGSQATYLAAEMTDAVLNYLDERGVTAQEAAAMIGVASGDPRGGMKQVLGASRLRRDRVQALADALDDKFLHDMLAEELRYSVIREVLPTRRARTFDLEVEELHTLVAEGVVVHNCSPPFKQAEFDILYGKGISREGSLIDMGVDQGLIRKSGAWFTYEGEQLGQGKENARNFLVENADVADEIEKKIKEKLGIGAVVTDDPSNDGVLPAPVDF

[11] = Luminescence Cell-Based Dose Retest to Confirm Inhibitors of Cancer Stem Cells. [Related pubchem assays (depositor defined):AID2717, AID2721]; format: functional; details: Homo sapiens
[12] = molecular target: T5, Hexokinase HKDC1 (Homo sapiens, UniProt Q2TB90); assay: HKDC1 hexokinase inhibitors, dose response, biochemical, W721R variant (AID 504729); format: functional
T5 sequence (Q2TB90 whole entry): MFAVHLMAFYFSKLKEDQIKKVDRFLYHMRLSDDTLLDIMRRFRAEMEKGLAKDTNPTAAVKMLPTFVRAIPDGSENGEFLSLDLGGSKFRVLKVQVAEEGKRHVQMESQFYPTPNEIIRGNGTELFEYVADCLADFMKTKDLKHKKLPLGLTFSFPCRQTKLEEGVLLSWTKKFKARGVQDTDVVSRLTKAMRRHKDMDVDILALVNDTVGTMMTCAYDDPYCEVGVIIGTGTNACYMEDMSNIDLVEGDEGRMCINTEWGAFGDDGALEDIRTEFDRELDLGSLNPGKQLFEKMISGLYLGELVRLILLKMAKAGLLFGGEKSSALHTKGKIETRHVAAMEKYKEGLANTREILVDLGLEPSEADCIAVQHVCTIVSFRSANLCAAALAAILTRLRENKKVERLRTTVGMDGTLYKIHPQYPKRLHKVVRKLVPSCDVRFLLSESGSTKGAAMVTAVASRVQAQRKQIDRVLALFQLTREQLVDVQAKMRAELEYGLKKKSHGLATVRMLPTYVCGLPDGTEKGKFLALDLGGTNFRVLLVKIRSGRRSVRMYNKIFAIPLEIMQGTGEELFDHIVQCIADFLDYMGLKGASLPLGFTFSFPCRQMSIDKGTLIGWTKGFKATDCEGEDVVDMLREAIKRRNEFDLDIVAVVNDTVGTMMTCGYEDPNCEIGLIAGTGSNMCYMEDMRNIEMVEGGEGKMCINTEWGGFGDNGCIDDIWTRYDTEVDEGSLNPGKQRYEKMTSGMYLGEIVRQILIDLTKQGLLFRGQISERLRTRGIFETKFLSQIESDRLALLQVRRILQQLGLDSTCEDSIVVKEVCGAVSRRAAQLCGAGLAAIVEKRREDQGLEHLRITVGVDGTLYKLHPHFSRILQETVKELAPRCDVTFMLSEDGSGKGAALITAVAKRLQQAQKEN

[13] = test system: Escherichia coli; assay: microbe, parasite or virus in culture
[14] = test system: Escherichia coli; assay: microbe, parasite or virus in culture; remark: listed apart in the source
[15] = molecular target: T6, CAAX prenyl protease 2 (Saccharomyces cerevisiae S288c, UniProt Q03530); format: biochemical
T6 sequence (Q03530 whole entry): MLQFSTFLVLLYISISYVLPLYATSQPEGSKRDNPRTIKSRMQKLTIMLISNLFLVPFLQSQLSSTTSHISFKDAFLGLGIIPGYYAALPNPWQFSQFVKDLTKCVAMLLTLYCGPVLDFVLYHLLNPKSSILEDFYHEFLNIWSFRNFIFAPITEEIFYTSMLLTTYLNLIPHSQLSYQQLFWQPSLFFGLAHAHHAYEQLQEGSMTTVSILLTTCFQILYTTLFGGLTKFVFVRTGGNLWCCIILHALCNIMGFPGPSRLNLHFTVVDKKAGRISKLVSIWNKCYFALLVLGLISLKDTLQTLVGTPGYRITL

[16] = cytotoxicity in HMLE control line with eGFP shRNA, dose response, counter-screen for HMLE_sh_ECad selective toxicity project, cell-based, HMLE_sh_eGFP, luminescence (AID 463074); format: functional, Homo sapiens;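 also: HMLE human mammary epithelial cells expressing control shRNA against eGFP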
[17] = test system: HEK293; assay: cells; details: Homo sapiens
[18] = test system: HEK293; assay: cells; details: Homo sapiens; remark: listed apart in the source

Sequence of Nuclear receptor subfamily 0 group B member 1 (P51843 whole entry): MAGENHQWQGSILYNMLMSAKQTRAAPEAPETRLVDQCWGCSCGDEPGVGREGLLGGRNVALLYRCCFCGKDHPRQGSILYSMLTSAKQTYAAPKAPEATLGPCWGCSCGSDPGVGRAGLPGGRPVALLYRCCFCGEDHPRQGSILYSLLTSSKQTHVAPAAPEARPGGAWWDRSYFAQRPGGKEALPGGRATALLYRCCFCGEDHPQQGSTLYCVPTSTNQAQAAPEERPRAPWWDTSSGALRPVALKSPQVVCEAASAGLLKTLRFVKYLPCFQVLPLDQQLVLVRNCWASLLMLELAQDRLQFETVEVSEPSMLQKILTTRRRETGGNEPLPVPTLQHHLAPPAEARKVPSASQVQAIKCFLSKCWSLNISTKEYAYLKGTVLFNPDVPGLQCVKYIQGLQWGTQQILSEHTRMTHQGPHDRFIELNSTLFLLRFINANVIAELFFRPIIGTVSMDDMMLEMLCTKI

## N=c1ccn2c(n1)O[C@H]1[C@@H](CO)[C@H](O)O[C@H]12
[1]
  IC50: > 80 µM (inactive)
[2]
  IC50: > 80 µM (inactive)

## CNC(=O)c1ncnnc1N(C)C(=O)NCc1ccccc1
[3]
  IC50: > 67.5 µM (inactive)
[4]
  IC50: > 67.5 µM (inactive)

## CCOC(=O)c1c(C)oc2c1C(=O)c1ccccc1C2=O
[5]
  AC50: 3.18 µM (active)
[6]
  AC50: 6.31 µM (active)
[7]
  AC50: 3.7 µM (active)
[8]
  IC50: 16.1 µM (active)
[9]
  AC50: 41.9 µM (active)
[10]
  EC50: 13.3 µM (active)
[11]
  AC50: 4.44 µM (active)

## CCC(C)C(N)C1=NC(C(=O)N[C@@H](CC(C)C)C(=O)N[C@H](CCC(=O)[O-])C(=O)N[C@H](C(=O)N[C@H]2CCCCNC(=O)[C@H](CC(N)=O)NC(=O)[C@@H](CC(=O)[O-])NC(=O)[C@H](Cc3c[nH]cn3)NC(=O)[C@@H](Cc3ccccc3)NC(=O)[C@H]([C@@H](C)CC)NC(=O)[C@@H](CCCN)NC2=O)[C@@H](C)CC)CS1.[Zn+2] (some centres undefined) (X1-L[dE]IK[dOrn]I[dF]H[dD]N; lactam 4-C)
[12]
  IC50: 2.69 µM (active)
[13]
  AC50: 184 µM (active)
[14]
  AC50: 38 µM (active)

## CCCCN=C(S)N=Nc1c(O)n(Cc2ccccc2)c2ccccc12
[15]
  AC50: 0.601 µM (active)
[16]
  AC50: 119 µM (active)
[11]
  AC50: 61.5 µM (active)

## COc1ccc(Cn2nnc3c(O)nc(C(=O)NCCc4ccc(F)cc4)nc32)cc1OC
[17]
  EC50: > 59.7 µM (inactive)
[18]
  EC50: > 59.7 µM (inactive)
